Test results reported in BindingDB's records for doi:10.1021/acschembio.6b00827 (Universitätsklinikum Frankfurt, 2017).

Tests used:
[1] = target: T1, Protein kinase C zeta type (Homo sapiens, UniProt Q05513); experiment: PKC AlphaScreen Assay; details: pH 7.4
T1 sequence (Q05513 whole entry): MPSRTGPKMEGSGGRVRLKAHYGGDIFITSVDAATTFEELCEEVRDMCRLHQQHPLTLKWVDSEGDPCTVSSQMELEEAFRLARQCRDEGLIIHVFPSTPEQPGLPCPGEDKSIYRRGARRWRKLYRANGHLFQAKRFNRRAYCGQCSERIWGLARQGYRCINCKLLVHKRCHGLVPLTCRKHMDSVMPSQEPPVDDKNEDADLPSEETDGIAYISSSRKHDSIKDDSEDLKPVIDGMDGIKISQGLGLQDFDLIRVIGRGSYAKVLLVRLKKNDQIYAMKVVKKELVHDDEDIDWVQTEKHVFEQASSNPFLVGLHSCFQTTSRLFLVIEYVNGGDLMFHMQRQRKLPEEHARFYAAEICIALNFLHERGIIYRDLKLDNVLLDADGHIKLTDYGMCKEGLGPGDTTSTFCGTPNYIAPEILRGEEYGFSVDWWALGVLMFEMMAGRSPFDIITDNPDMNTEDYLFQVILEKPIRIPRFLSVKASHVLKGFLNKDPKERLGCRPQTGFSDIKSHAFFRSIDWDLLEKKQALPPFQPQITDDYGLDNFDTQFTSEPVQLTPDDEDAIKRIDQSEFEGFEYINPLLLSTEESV
Method: (§1) Interaction assays were performed using the Alpha-Screen (amplified luminescent proximity homogeneous assay) technology, as described previously [Lopez-Garcia et al., Chem. Biol., 18:1463-1473; Zhang et al., Chem. Biol., 21:754-765]. The bead-based assay allows the detection of biomolecular interactions and the effect of small compounds. Briefly, the Alpha-Screen assay was performed in a finalvolume of 25 μL in white 384-well microtiter plates (Greiner Bio-One) with His-PKCι-CD (40 nM) and biotin-pseudosubstrate (80 nM) or His-PKCι-CD (15 nM) and biotin-ROCKtide (100 nM) in a buffer containing 50 mM Tris-HCl (pH 7.4), 100 mM NaCl, 0.01% (v/v) Tween 20, 0.1% (w/v) BSA, 2 mM dithiothreitol (for the PKCι-Rocktide interaction) or 5 mM dithiothreitol (for the PKCι-pseudosubstrate interaction), and the corresponding concentration of the compound. Five microliters of beads at a concentration of 20 μg/mL was added to the mixture (nickel chelate-coated acceptor beads and streptavidin-coated donor beads), and after incubation for 90 min, Alpha-Screen counts were obtained in an EnVision Multiplate reader.

[2] = target: T2, Protein kinase C iota type (Homo sapiens, UniProt P41743); experiment: PKC AlphaScreen Assay; details: pH 7.4
T2 sequence (P41743 whole entry): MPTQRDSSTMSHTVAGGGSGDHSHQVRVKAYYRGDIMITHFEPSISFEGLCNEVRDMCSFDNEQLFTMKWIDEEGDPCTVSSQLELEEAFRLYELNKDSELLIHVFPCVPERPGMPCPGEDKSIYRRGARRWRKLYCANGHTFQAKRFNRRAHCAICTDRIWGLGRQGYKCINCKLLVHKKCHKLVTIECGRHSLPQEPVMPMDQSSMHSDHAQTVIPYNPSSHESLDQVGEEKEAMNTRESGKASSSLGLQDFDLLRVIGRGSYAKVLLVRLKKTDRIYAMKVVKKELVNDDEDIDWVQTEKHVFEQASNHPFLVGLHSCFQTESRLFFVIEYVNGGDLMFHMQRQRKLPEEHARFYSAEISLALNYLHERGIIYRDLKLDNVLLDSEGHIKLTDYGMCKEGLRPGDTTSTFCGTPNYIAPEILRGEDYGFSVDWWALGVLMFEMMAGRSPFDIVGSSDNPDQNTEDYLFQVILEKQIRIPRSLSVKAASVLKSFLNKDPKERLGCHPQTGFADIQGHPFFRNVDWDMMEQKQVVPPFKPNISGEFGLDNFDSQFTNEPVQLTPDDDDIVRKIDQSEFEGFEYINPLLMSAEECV
Method: as §1

Compound | IC50 [1] | IC50 [2]
CCOC(=O)C1=C(O)C(=O)N(c2nc3ccc(Cl)cc3[nH]2)C1c1ccc(Cl)cc1 (configuration not stated) [PS212] | 20.5 µM | 43.2 µM
CCOC(=O)C1=C(O)C(=O)N(c2nc3ccc(Cl)cc3s2)C1c1cccs1 (configuration not stated) [PS267] | 17.8 µM | 36.4 µM
CCOC(=O)C1=C(O)C(=O)N(c2nc3ccc(Cl)cc3[nH]2)C1c1ccccc1 (configuration not stated) [PS312] | 44.1 µM | –
CCOC(=O)C1=C(O)C(=O)N(c2nc3ccc(C)cc3s2)C1c1ccc(-c2ccc(Cl)cc2)o1 (configuration not stated) [PS432] | 18.5 µM | 16.9 µM
